Laboratory results reported in patent US20250388605A1, “HETEROBIFUNCTIONAL COMPOUNDS AND METHODS OF TREATING DISEASE” (Halda Therapeutics OpCo, Inc., priority 2022, published 2025).

What was measured:
[1] = tested on: T-Rex 293 cell line SC3 cells lacking increased expression of androgen receptor protein; assay: Cellular growth inhibition, T-Rex 293 SC3 cells without doxycycline (no increased androgen receptor expression), CellTiter-Glo; format: cell-based; conditions: T-Rex 293 SC3 cells not exposed to doxycycline (no increased androgen receptor expression), 72 hours
Procedure, shortened: (§1)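 Doxycycline (10 ng/mL) was either included or omitted to toggle wild-type androgen receptor expression in SC3 cells, a T-Rex 293 clone, grown in stripped-serum, phenol red-free medium. After 72 hours with compound, viable cells were quantified by CellTiter-Glo 2.0.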

VCaP cells = assay: Cellular growth inhibition assay for VCaP cells, CellTiter-Glo; format: cell-based, human; conditions: 72 hours
Procedure, shortened: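 GI50 values come from four-parameter curve fits of luminescence data normalized to a zero baseline. Compound, in medium with 0.5% DMSO, was added one day after plating and left for 72 h before CellTiter-Glo 2.0 addition.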

T47D cells = assay: Cellular Growth Inhibition Assay for T47D Cells (CellTiter-Glo); format: cell-based, human; conditions: 72 hours
Procedure, shortened: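 GI50 values derive from four-parameter regression of CellTiter-Glo 2.0 luminescence, using zero luminescence as baseline. Human breast cancer T47D cells (3000/well; DMEM, 10% FBS, 0.2 units/mL insulin) were exposed for 72 h to compound dilutions at 0.5% DMSO, with dosing starting 24 h after seeding.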

[2] = tested on: T-Rex 293 cell line SC3 cells having increased expression of androgen receptor protein due to exposure to doxycycline; assay: Cellular growth inhibition, T-Rex 293 SC3 cells with doxycycline (increased androgen receptor expression), CellTiter-Glo; format: cell-based; conditions: T-Rex 293 SC3 cells with 10 ng/mL doxycycline (increased androgen receptor expression), 72 hours, CellTiter-Glo 2.0
Procedure, shortened: as §1

| Compound | GI50 [1] [nM] | GI50 (VCaP cells) [nM] | GI50 (T47D cells) [nM] | GI50 [2] [nM] | GI50 (VCaP cells; Homo sapiens) [nM] | GI50 (T47D cells; Homo sapiens) [nM] |
| --- | --- | --- | --- | --- | --- | --- |
| CCS(=O)(=O)Cc1ccc(Oc2cccc(OC(C)(C)CCC3CCN(c4ncc(C(=O)N[C@H]5C(C)(C)[C@H](Oc6ccc(C#N)c(Cl)c6)C5(C)C)cn4)CC3)c2)c(-c2cn(C)c(=O)c3[nH]ccc23)c1 [Compound I-293] | > 3000 | < 500 | < 500 | < 500 | – | – |
| Cn1cc(-c2cc(C(C)(C)O)ccc2Oc2cccc(N3CC(CN4CCN(c5ncc(C(=O)N[C@H]6C(C)(C)[C@H](Oc7ccc(C#N)c(Cl)c7)C6(C)C)cn5)CC4(C)C)C3)c2F)c2cc[nH]c2c1=O [Compound I-294] | > 3000 | < 500 | < 500 | < 500 | – | – |
| CCS(=O)(=O)c1ccc(OC2CC(OC3CC4(CCN(c5ncc(C(=O)NC6C(C)(C)C(Oc7ccc(C#N)c(Cl)c7)C6(C)C)cn5)CC4)C3)C2)c(-c2cn(C)c(=O)c3[nH]ccc23)c1 (stereo not shown) [Compound I-295, N-[3-(3-chloro-4-cyano-phenoxy)-2,2,4,4-tetramethyl-cyclobutyl]-2-[2-[3-[4-ethylsulfonyl-2-(6-methyl-7-oxo-1Hpyrrolo[2,3-c]pyridin-4-yl)phenoxy]cyclobutoxy]-7-azaspiro[3.5]nonan-7-yl]pyrimidine-5-carboxamide] | < 500 | – | – | < 500 | < 500 | < 500 |
| Cn1cc(-c2cc(C(C)(C)O)ccc2OC2CC3CC2CC3OCC2CCN(c3ncc(C(=O)N[C@H]4C(C)(C)[C@H](Oc5ccc(C#N)c(Cl)c5)C4(C)C)cn3)CC2)c2cc[nH]c2c1=O (stereo partly shown) [Compound I-296] | > 3000 | < 500 | > 3000 | < 500 | – | – |
| Cn1cc(-c2cc(C(C)(C)O)ccc2Oc2ccc(OC3CCN(c4ncc(C(=O)N[C@H]5C(C)(C)[C@H](Oc6ccc(C#N)c(Cl)c6)C5(C)C)cn4)CC3)nc2)c2cc[nH]c2c1=O [Compound I-297, N-[3-(3-chloro-4-cyano-phenoxy)-2,2,4,4-tetramethyl-cyclobutyl]-2-[4-[[5-[4-(1-hydroxy-1-methyl-ethyl)-2-(6-methyl-7-oxo-1H-pyrrolo[2,3-c]pyridin-4-yl)phenoxy]-2-pyridyl]oxy]-1-piperidyl]pyrimidine-5-carboxamide] | < 500 | – | – | < 500 | < 500 | < 500 |
| Cn1cc(-c2cc(C(C)(C)O)ccc2Oc2ccc(CC3CCN(c4ncc(C(=O)N[C@H]5C(C)(C)[C@H](Oc6ccc(C#N)c(Cl)c6)C5(C)C)cn4)CC3)nc2)c2cc[nH]c2c1=O [Compound I-298, N-[3-(3-chloro-4-cyano-phenoxy)-2,2,4,4-tetramethyl-cyclobutyl]-2-[4-[[5-[4-(1-hydroxy-1-methyl-ethyl)-2-(6-methyl-7-oxo-1H-pyrrolo[2,3-c]pyridin-4-yl)phenoxy]-2-pyridyl]methyl]-1-piperidyl]pyrimidine-5-carboxamide] | < 500 | – | – | < 500 | < 500 | < 500 |
| Cn1cc(-c2cc(C(C)(C)O)ccc2Oc2ccc(CN3CC4(C3)CN(c3ncc(C(=O)N[C@H]5C(C)(C)[C@H](Oc6ccc(C#N)c(Cl)c6)C5(C)C)cn3)CCO4)cc2)c2cc[nH]c2c1=O [Compound I-300] | < 500 | < 500 | < 500 | < 500 | – | – |
| Cn1cc(-c2cc(C(C)(C)O)ccc2Oc2ccc(CCC3CCCN(c4ncc(C(=O)N[C@H]5C(C)(C)[C@H](Oc6ccc(C#N)c(Cl)c6)C5(C)C)cn4)C3)cc2)c2cc[nH]c2c1=O (stereo partly shown) [Compound I-301] | > 3000 | 500 to 1500 | < 500 | < 500 | – | – |
| Cn1cc(-c2cc(C(C)(C)O)ccc2Oc2ccc(CCC3CCN(c4ncc(C(=O)N[C@H]5C(C)(C)[C@H](Oc6ccc(C#N)c(Cl)c6)C5(C)C)cn4)CC3)nc2)c2cc[nH]c2c1=O [Compound I-302] | 500 to 1500 | < 500 | 500 to 1500 | < 500 | – | – |
| Cn1cc(-c2cc(C(C)(C)O)ccc2Oc2ccc(CCC3CN(c4ncc(C(=O)N[C@H]5C(C)(C)[C@H](Oc6ccc(C#N)c(Cl)c6)C5(C)C)cn4)CCO3)cc2)c2cc[nH]c2c1=O (stereo partly shown) [Compound I-305] | > 3000 | – | – | < 500 | < 500 | < 500 |
| Cn1cc(-c2cc(C(C)(C)O)ccc2Oc2ccc(CCCC3CCCN(c4ncc(C(=O)N[C@H]5C(C)(C)[C@H](Oc6ccc(C#N)c(Cl)c6)C5(C)C)cn4)C3)cc2)c2cc[nH]c2c1=O (stereo partly shown) [Compound I-306] | > 3000 | 500 to 1500 | > 3000 | < 500 | – | – |
| Cn1cc(-c2cc(C(C)(C)O)ccc2Oc2ccc(CCCC3CN(c4ncc(C(=O)N[C@H]5C(C)(C)[C@H](Oc6ccc(C#N)c(Cl)c6)C5(C)C)cn4)CCO3)cc2)c2cc[nH]c2c1=O (stereo partly shown) [Compound I-307] | > 3000 | < 500 | < 500 | < 500 | – | – |
| Cn1cc(-c2cc(C(C)(C)O)ccc2Oc2ccc(C(C)(C)N3CC4(CCN(c5ncc(C(=O)N[C@H]6C(C)(C)[C@H](Oc7ccc(C#N)c(Cl)c7)C6(C)C)cn5)CC4)C3)cc2)c2cc[nH]c2c1=O [Compound I-308] | 500 to 1500 | – | – | < 500 | < 500 | > 3000 |
| Cn1cc(-c2cc(C(C)(C)O)ccc2O[C@H]2C[C@H](CC3CCN(c4ncc(C(=O)N[C@H]5C(C)(C)[C@H](Oc6ccc(C#N)c(Cl)c6)C5(C)C)cn4)CC3)C2)c2cc[nH]c2c1=O [Compound I-309, N-[3-(3-chloro-4-cyano-phenoxy)-2,2,4,4-tetramethyl-cyclobutyl]-2-[4-[[3-[4-(1-hydroxy-1-methyl-ethyl)-2-(6-methyl-7-oxo-1H-pyrrolo[2,3-c]pyridin-4-yl)phenoxy]cyclobutyl]methyl]-1-piperidyl]pyrimidine-5-carboxamide] | 500 to 1500 | – | – | < 500 | < 500 | < 500 |
| Cn1cc(-c2cc(C(C)(C)O)ccc2O[C@H]2C[C@H](CCC3CCN(c4ncc(C(=O)N[C@H]5C(C)(C)[C@H](Oc6ccc(C#N)c(Cl)c6)C5(C)C)cn4)CC3)C2)c2cc[nH]c2c1=O [Compound I-310] | < 500 | < 500 | < 500 | < 500 | – | – |
| Cn1cc(-c2cc(C(C)(C)O)ccc2Oc2ccc(C3CC(N4CCN(c5ncc(C(=O)N[C@H]6C(C)(C)[C@H](Oc7ccc(C#N)c(Cl)c7)C6(C)C)cn5)CC4)C3)cc2)c2cc[nH]c2c1=O (stereo partly shown) [Compound I-311] | 500 to 1500 | < 500 | < 500 | < 500 | – | – |
| Cn1cc(-c2cc(C(C)(C)O)ccc2Oc2ccc(C(C)(C)N3CC4(CN(c5ncc(C(=O)N[C@H]6C(C)(C)[C@H](Oc7ccc(C#N)c(Cl)c7)C6(C)C)cn5)CCO4)C3)cc2)c2cc[nH]c2c1=O [Compound I-312] | 500 to 1500 | < 500 | 500 to 1500 | < 500 | – | – |
| Cn1cc(-c2cc(C(C)(C)O)ccc2Oc2ccc(N3CC(CC4CN(C5CCC(C(=O)N[C@H]6C(C)(C)[C@H](Oc7ccc(C#N)c(Cl)c7)C6(C)C)CC5)C4)C3)cc2)c2cc[nH]c2c1=O (stereo partly shown) [Compound I-313] | 500 to 1500 | – | – | 500 to 1500 | < 500 | < 500 |
| Cn1cc(-c2cc(C(C)(C)O)ccc2Oc2cccc(OC3CCC4(CC3)CCN(c3ncc(C(=O)N[C@H]5C(C)(C)[C@H](Oc6ccc(C#N)c(Cl)c6)C5(C)C)cn3)CC4)c2)c2cc[nH]c2c1=O [Compound I-314] | > 3000 | < 500 | 500 to 1500 | < 500 | – | – |
| Cn1cc(-c2cc(C(C)(C)O)ccc2Oc2ccc(CCOC3CCN(c4ncc(C(=O)N[C@H]5C(C)(C)[C@H](Oc6ccc(C#N)c(Cl)c6)C5(C)C)cn4)CC3)cn2)c2cc[nH]c2c1=O [Compound I-315] | > 3000 | – | – | < 500 | < 500 | 500 to 1500 |
| Cn1cc(-c2cc(C(C)(C)O)ccc2Oc2ccc(N3CC(CC4CN(c5ccc(C(=O)N[C@H]6C(C)(C)[C@H](Oc7ccc(C#N)c(Cl)c7)C6(C)C)cn5)C4)C3)cc2)c2cc[nH]c2c1=O [Compound I-316] | < 500 | – | – | < 500 | < 500 | 500 to 1500 |
| Cn1cc(-c2cc(C(C)(C)O)ccc2Oc2cccc(CC3CCC4(CC3)CCN(c3ncc(C(=O)N[C@H]5C(C)(C)[C@H](Oc6ccc(C#N)c(Cl)c6)C5(C)C)cn3)CC4)c2)c2cc[nH]c2c1=O [Compound I-318] | > 3000 | > 3000 | < 500 | < 500 | – | – |
| Cn1cc(-c2cc(C(C)(C)O)ccc2Oc2ccc(N3CC(CC4CN(c5ccc(C(=O)N[C@H]6C(C)(C)[C@H](Oc7ccc(C#N)c(Cl)c7)C6(C)C)nn5)C4)C3)cc2)c2cc[nH]c2c1=O [Compound I-319] | < 500 | – | – | < 500 | < 500 | < 500 |
| Cn1cc(-c2cc(C(C)(C)O)ccc2Oc2cccc(OC3CC4(C3)CN(c3ncc(C(=O)N[C@H]5C(C)(C)[C@H](Oc6ccc(C#N)c(Cl)c6)C5(C)C)cn3)C4)c2)c2cc[nH]c2c1=O [Compound I-320] | < 500 | < 500 | < 500 | < 500 | – | – |
| Cn1cc(-c2cc(C(C)(C)O)ccc2Oc2cccc(CC3CC4(C3)CN(c3ncc(C(=O)N[C@H]5C(C)(C)[C@H](Oc6ccc(C#N)c(Cl)c6)C5(C)C)cn3)C4)c2)c2cc[nH]c2c1=O [Compound I-321] | < 500 | < 500 | < 500 | < 500 | – | – |
